How the values were obtained:
[1] = Dissolution experiment, paddle method, 900 ml medium, 50 rpm; assay type: physicochemical
Experimental: By using the prepared Comparative example 1, dissolution experiments was made in a buffer having a pH of 1.2 (prepared by mixing 2.0 g of sodium chloride with 7.0 ml of hydrochloric acid and adding purified water until it totals 1 liter), a buffer having a pH of 4.0 (prepared by mixing 0.05 mol/L acetic acid solution with 0.05 mol/L sodium acetate solution (41:9) and adjusting a pH to 4.0), a buffer having a pH of 6.8 (prepared by mixing 250 ml of 0.2 mol/L potassium dihydrogen phosphate test solution with 118 ml of 0.2 mol/L sodium hydroxide test solution and adding water until it totals 1 liter), and purified water. In this instance, a paddle method was used, an amount of a dissolution medium was 900 ml, and a paddle rotation rate was 50 rpm. Like Comparative example 1, the dissolution of Examples 1-4 in a buffer having a pH of 1.2 was evaluated. Like Example 1, the dissolution of Examples 5-10 in a buffer having a pH of 1.2 was evaluated. Like Comparative example 1, the dissolution of Example 9 in different dissolution media was evaluated.

[2] = relative to losartan; cited from earlier work

behaviour on contact with purified water or a buffer [1]: gelled
SMILES: CCCCc1nc(Cl)c(C(=O)O)n1Cc1ccc(-c2ccccc2-c2nnn[nH]2)cc1 [losartan carboxylic acid, 2-butyl-4-chloro-1-[(2′-(1H-tetrazol-5-yl)[1,1′-biphenyl]-4-yl)methyl]-1H-imidazole-5-carboxylic acid]
half life compared with losartan [2]: longer

From patent publication US20120095067A1, “PHARMACEUTICAL COMPOSITION CONTAINING CARBOXYLOSARTAN AND A PRODUCTION METHOD THEREFOR” (JIN YANG PHARM. CO., LTD., priority 2009, published 2012)
